Measurements from US12076306B2, “Prodrugs of fumarates and their use in treating various diseases” (Alkermes Pharma Ireland Limited, priority 2013, dated 2024).
Structures can show the parent of a compound that is named as a salt.

Test: Physical stability in crystalline form by thermogravimetric analysis (TGA)
Format: physicochemical
Settings: DMF loss in less than 4 hours
Procedure: The physical stability of compounds of the present invention and DMF were measured via thermogravimetric analysis (TGA).

Row | weight loss at 60° C. vs time | SMILES
1 | ~100% | COC(=O)/C=C/C(=O)OC [DMF, Dimethyl fumarate, reference compound]
2 | no change | COC(=O)/C=C/C(=O)OCCN1C(=O)CCC1=O [Compound 14, 2-(2,5-dioxopyrrolidin-1-yl)ethyl methyl fumarate]

Test: Aqueous chemical stability, 100 mM phosphate buffer, HPLC (Table 3)
Format: physicochemical
Settings: buffer phosphate (100 mM), 37° C., half-lives >360 min estimated from initial slope
Procedure: Stock solutions of the compounds in acetonitrile or acetonitrile/methanol were prepared at 20 mg/mL and 20 μL, spiked into 3 mL of buffer phosphate (100 mM) and incubated at 37° C. Aliquots (50 μL) were sampled at different time points and diluted 20 fold with ammonium formate (pH 3.5)/acetonitrile. The diluted samples were analyzed by HPLC. The peak areas corresponding to the compounds were plotted against time and the data were fitted to a first-order mono-exponential decay where the rate constant and the half-life were determined (Table 3).

Row | pH 8 (t ½, min) [min] | SMILES
3 | 24 | COC(=O)/C=C/C(=O)OCCN1CCC(F)(F)CC1 [Compound 5, 2-(4,4-difluoropiperidin-1-yl)ethyl methyl fumarate hydrochloride]
4 | 120 | CCN(CC)C(=O)COC(=O)/C=C/C(=O)OC [Reference Compound A, 2-(diethylamino)-2-oxoethyl methyl fumarate, reference compound]
5 | 67.0 | COC(=O)/C=C/C(=O)OCCS(C)(=O)=O [Compound 10, Methyl (2-(methylsulfonyl)ethyl) fumarate]
6 | >240 | COC(=O)/C=C/C(=O)OCCN1CCS(=O)(=O)CC1 [Compound 11, 2-(1,1-dioxidothiomorpholino)ethyl methyl fumarate hydrochloride]
7 | 5.0 | COC(=O)/C=C/C(=O)OCCN1CCCC1 [Compound 18, Methyl (2-(pyrrolidin-1-yl)ethyl) fumarate hydrochloride]
8 | 3.0 | COC(=O)/C=C/C(=O)OCCN1CCCCC1 [Compound 15, Methyl (2-(piperidin-1-yl)ethyl) fumarate hydrochloride]
9 | 6.0 | COC(=O)/C=C/C(=O)OCCN(C)C [Compound 19, 2-(dimethylamino)ethyl methyl fumarate hydrochloride]
10 | 45 | COC(=O)/C=C/C(=O)OCC[N+](C)(C)C [Compound 4, (E)-2-((4-methoxy-4-oxobut-2-enoyl)oxy)-N,N,N-trimethylethanaminium iodide]
11 | 5.0 | CCN(CC)CCOC(=O)/C=C/C(=O)OC [Compound 20, 2-(diethylamino)ethyl methyl fumarate hydrochloride]
12 | 11.0 | COC(=O)/C=C/C(=O)OCCN1CCC2(CC1)OCCO2 [Compound 17, 2-(1,4-dioxa-8-azaspiro[4.5]decan-8-yl)ethyl methyl fumarate hydrochloride]
13 | 20.0 | COC(=O)/C=C/C(=O)OCCN1CCOCC1 [Compound 16, Methyl (2-morpholinoethyl) fumarate hydrochloride]

Row | SMILES | pH 8 (t ½, min) [min]
14 | COC(=O)/C=C/C(=O)OCCN1CCSCC1 [Compound 7, Methyl (2-thiomorpholinoethyl) fumarate hydrochloride] | 26.0
15 | COC(=O)/C=C/C(=O)OCCNc1ccccc1 [Compound 8, Methyl (2-(phenylamino)ethyl) fumarate hydrochloride] | 36.0
16 | COC(=O)/C=C/C(=O)OC(C)CN(C)C (centres unmarked) [Compound 6, 1-(dimethylamino)propan-2-yl methyl fumarate hydrochloride] | 2.0
17 | COC(=O)/C=C/C(=O)OCC(C)(C)N(C)C [Compound 9, 2-(dimethylamino)-2-methylpropyl methyl fumarate hydrochloride] | 7.0
18 | COC(=O)/C=C/C(=O)OCCN(CC(=O)O)CC(=O)O [Compound 1, (E)-2,2′-((2-((4-methoxy-4-oxobut-2-enoyl)oxy)ethyl)azanediyl)diacetic acid hydrochloride] | 15

Test: Aqueous chemical stability, 50 mM phosphate buffer pH 8, HPLC-UV (Table 4)
Format: physicochemical
Settings: 50 mM buffer phosphate pH 8, 37° C., HPLC UV 211 nm
Procedure: Stock solutions of the compounds in acetonitrile or acetonitrile/MeOH were prepared at 0.05M. A 0.010 mL aliquot of the stock was spiked into 1 mL of 50 mM buffer phosphate pH 8 and incubated at 37° C. Typically, aliquots (0.010 mL) were sampled at different time points and immediately injected in the HPLC with UV detection (211 nm). The peak areas corresponding to the compounds were plotted against time and the data were fitted to a first-order mono-exponential decay where the rate constant and the half-life were determined from the slope (Table 4).

Row | SMILES | pH 8 (t ½, min) [min]
19 | COC(=O)/C=C/C(=O)OCCNC(=O)OC(C)(C)C [Compound 48, 2-((tert-butoxycarbonyl)amino)ethyl methyl fumarate] | 220
20 | COC(=O)/C=C/C(=O)OCCN1CCC(F)(F)CC1 [Compound 5, 2-(4,4-difluoropiperidin-1-yl)ethyl methyl fumarate hydrochloride] | 24
21 | COC(=O)/C=C/C(=O)OCC[N+]1([O-])CCOCC1 [Compound 26, (E)-4-(2-((4-methoxy-4-oxobut-2-enoyl)oxy)ethyl)morpholine 4-oxide] | 129
22 | COC(=O)/C=C/C(=O)OCCN1C(=O)COCC1=O [Compound 27, 2-(3,5-dioxomorpholino)ethyl methyl fumarate] | 37
23 | COC(=O)/C=C/C(=O)OC(C)CN(C)C (centres unmarked) [Compound 6, 1-(dimethylamino)propan-2-yl methyl fumarate hydrochloride] | 2
24 | COC(=O)/C=C/C(=O)OCCN1C(=O)C2CC2C1=O (centres unmarked) [Compound 22, 2-(2,4-Dioxo-3-azabicyclo[3.1.0]hexan-3-yl)ethyl methyl fumarate] | 144
25 | COC(=O)/C=C/C(=O)OCCN(C)C [Compound 19, 2-(dimethylamino)ethyl methyl fumarate hydrochloride] | 117
26 | COC(=O)/C=C/C(=O)OCCN1C(=O)[C@@H](C)[C@@H](C)C1=O [Compound 23, 2-((3R,4S)-3,4-Dimethyl-2,5-dioxopyrrolidin-1-yl)ethyl methyl fumarate] | 186
27 | COC(=O)/C=C/C(=O)OCC[N+](C)(C)C [Compound 4, (E)-2-((4-methoxy-4-oxobut-2-enoyl)oxy)-N,N,N-trimethylethanaminium iodide] | 30
28 | COC(=O)/C=C/C(=O)OCCN(CC(=O)O)CC(=O)O [Compound 1, (E)-2,2′-((2-((4-methoxy-4-oxobut-2-enoyl)oxy)ethyl)azanediyl)diacetic acid hydrochloride] | 15
29 | COC(=O)/C=C/C(=O)OCCN1CC(C)OC(C)C1 (centres unmarked) [Compound 29, 2-(2,6-dimethylmorpholino)ethyl methyl fumarate hydrochloride] | <10
30 | COC(=O)/C=C/C(=O)OCCN1CCOC(C)(C)C1 [Compound 28, 2-(2,2-dimethylmorpholino)ethyl methyl fumarate hydrochloride] | <10

More lines, now with the values ahead:

Row | pH 8 (t ½, min) [min] | SMILES
31 | 13 | COC(=O)/C=C/C(=O)OCCN1CC2CCC(C1)O2 [Compound 32, 2-(8-Oxa-3-azabicyclo[3.2.1]octan-3-yl)ethyl methyl fumarate hydrochloride]
32 | 183 | COC(=O)/C=C/C(=O)OCCN1CCOC1=O [Compound 39, Methyl (2-(2-oxooxazolidin-3-yl)ethyl) fumarate]
33 | 229 | COC(=O)/C=C/C(=O)OCCN1CCOCC1=O [Compound 30, Methyl (2-(3-oxomorpholino)ethyl) fumarate]
34 | 26 | COC(=O)/C=C/C(=O)OCCN1CCOC(=O)C1 [Compound 31, Methyl (2-(2-oxomorpholino)ethyl) fumarate hydrochloride]
35 | 201 | COC(=O)/C=C/C(=O)OCCN1CCCC1=O [Compound 38, Methyl (2-(2-oxopyrrolidin-1-yl)ethyl) fumarate]
36 | 1010 | COC(=O)/C=C/C12COC(C)(CO1)CO2 [Compound 130, (E)-Methyl 3-(4-methyl-2,5,7-trioxabicyclo[2.2.2]octan-1-yl)acrylate]
37 | 115 | COC(=O)/C=C/C(=O)OCCN1CCOC(CN(C)C)C1 (centres unmarked) [Compound 33, 2-(2-((Dimethylamino)methyl)morpholino)ethyl methyl fumarate hydrochloride]
38 | 246 | COC(=O)/C=C/C(=O)OCCCN1C(=O)CCC1=O [Compound 133, 3-(2,5-Dioxopyrrolidin-1-yl)propyl methyl fumarate]
39 | 96 | C#CCOC(=O)/C=C/C(=O)OC [Compound 131, Methyl prop-2-yn-1-yl fumarate]
40 | 182 | COC(=O)/C=C/C(=O)OCCN1C(=O)CC(C)(C)C1=O [Compound 37, 2-(3,3-Dimethyl-2,5-dioxopyrrolidin-1-yl)ethyl methyl fumarate]
41 | 203 | COC(=O)/C=C/C(=O)OCCN1C(=O)NC(C)(C)C1=O [Compound 40, 2-(4,4-Dimethyl-2,5-dioxoimidazolidin-1-yl)ethyl methyl fumarate]
42 | 177.5 | COC(=O)/C=C/C(=O)OCCNC(C)=O [Compound 43, 2-Acetamidoethyl methyl fumarate]
43 | 158 | CCC(=O)N(CCOC(=O)/C=C/C(=O)OC)C(=O)CC [Compound 42, Methyl (2-(N-propionylpropionamido)ethyl) fumarate]
44 | 145 | COC(=O)/C=C/C(=O)OCCN(C(C)=O)C(C)=O [Compound 44, 2-(N-Acetylacetamido)ethyl methyl fumarate]
